Reference: patent publication US7323260B2, “Lubricant, recording medium and carboxylic acid compound” (Sony Corporation, priority 2003, dated 2008)

Experiment: Evaluation of solubility in solvent
Format: physicochemical
Procedure: Solubility of lubricants which were used in Examples 1 to 11 and Comparative Example 3 in each of ethanol, acetone and toluene was evaluated. Evaluation results of solubility of the lubricants are shown in Table 10 by evaluation criteria as defined as follows: […]
Solubility of lubricants which were used in Examples 21 to 37 in each of ethanol, acetone and toluene was evaluated. Evaluation results of solubility of lubricants are shown in Table 19 by evaluation criteria as defined as follows: […]

solubility in a hydrocarbon type solvent (in words): hardly dissolved
Substance: C18H37CH(COOC12H25)(CH2)2COOCH2CF2(OCF2)p(OCF(CF3)CF2)qOCF3 [Comparative Example 3]
